Reference: ChEMBL document CHEMBL3885861, “Open TG-GATES”

Organism: Rattus norvegicus
Test: Open TG-GATES - Regimen: Single
Assay type: toxicity, organism-based, Sprague-Dawley
Parameters: regimen Single, gender Male, age 6 weeks
Conditions: in vivo, po, route gavage; for Bas / Eos / Lym / MCHC / MCV / Mono / Neu / RBC / Ret / WBC: tissue Blood; for KIDNEY_L / KIDNEY_R / KIDNEY_TOTAL: tissue Kidney; for LIVER: tissue Liver; for ALP / AST / CRE / DBIL / GLC / IP / K / LDH / Na / PL / RALB / TBIL / TC / TP / gamma-GTP: tissue Plasma
[1] = 0 mg/kg, 3 h, dose level Control
[2] = 0 mg/kg, 6 h, dose level Control
[3] = 0 mg/kg, 9 h, dose level Control
[4] = 0 mg/kg, 24 h, dose level Control

## CS(=O)(=O)O.Cc1ccc(NC(=O)c2ccc(CN3CCN(C)CC3)cc2)cc1Nc1nccc(-c2cccnc2)n1 [IMATINIB MESYLATE]
[1]
  Bas: 0%
  Eos: 0.6%
  Lym: 77.4%
  MCHC: 32.7%
  MCV: 64.2 fL
  Mono: 3%
  Neu: 18.6%
  RBC: 606.4 x10_4/ul
  Ret: 9.4%
  WBC: 98.6 x10_2/uL
  KIDNEY_L: 0.9 g
  KIDNEY_R: 0.9 g
  KIDNEY_TOTAL: 1.7 g
  LIVER: 9.6 g
  ALP: 1737 IU/L
  AST: 82.8 IU/L
  CRE: 0.2 mg/dL
  DBIL: 0.004 mg/dL
  GLC: 184 mg/dL
  IP: 8.3 mg/dL
  K: 4.1 meq/L
  LDH: 215.6 IU/L
  Na: 143.2 meq/L
  PL: 163.8 mg/dL
  RALB: 4.1 g/dL
  TBIL: 0.012 mg/dL
  TC: 86.8 mg/dL
  TP: 5.4 g/dL
  gamma-GTP: 0.8 IU/L
[2]
  Bas: 0%
  Eos: 0.4%
  Lym: 80.4%
  MCHC: 33.1%
  MCV: 63.3 fL
  Mono: 3%
  Neu: 15.2%
  RBC: 615.4 x10_4/ul
  Ret: 11.2%
  WBC: 112.4 x10_2/uL
  KIDNEY_L: 0.8 g
  KIDNEY_R: 0.8 g
  KIDNEY_TOTAL: 1.7 g
  LIVER: 8.7 g
  ALP: 1529.4 IU/L
  AST: 72.4 IU/L
  CRE: 0.2 mg/dL
  DBIL: 0.006 mg/dL
  GLC: 175.8 mg/dL
  IP: 9.6 mg/dL
  K: 4.2 meq/L
  Na: 139.7 meq/L
  PL: 152.4 mg/dL
  RALB: 4 g/dL
  TBIL: 0.022 mg/dL
  TC: 86.4 mg/dL
  TP: 5.5 g/dL
  gamma-GTP: 0.9 IU/L
[3]
  Bas: 0%
  Eos: 0.8%
  Lym: 76.4%
  MCHC: 33.4%
  MCV: 62.3 fL
  Mono: 2.2%
  Neu: 20.4%
  RBC: 617 x10_4/ul
  Ret: 9%
  WBC: 86 x10_2/uL
  KIDNEY_L: 0.9 g
  KIDNEY_R: 0.9 g
  KIDNEY_TOTAL: 1.8 g
  LIVER: 8.1 g
  ALP: 1372 IU/L
  AST: 76.6 IU/L
  CRE: 0.2 mg/dL
  DBIL: 0.01 mg/dL
  GLC: 170 mg/dL
  IP: 9.5 mg/dL
  K: 3.9 meq/L
  LDH: 175 IU/L
  Na: 140.3 meq/L
  PL: 140.2 mg/dL
  RALB: 4.1 g/dL
  TBIL: 0.016 mg/dL
  TC: 81.8 mg/dL
  TP: 5.5 g/dL
  gamma-GTP: 0.8 IU/L
[4]
  Bas: 0%
  Eos: 1%
  Lym: 81.4%
  MCHC: 32.9%
  MCV: 65.5 fL
  Mono: 2.4%
  Neu: 14.6%
  RBC: 607.4 x10_4/ul
  Ret: 9.3%
  WBC: 100.4 x10_2/uL
  KIDNEY_L: 0.9 g
  KIDNEY_R: 0.9 g
  KIDNEY_TOTAL: 1.8 g
  LIVER: 10 g
  ALP: 1682.4 IU/L
  AST: 68.2 IU/L
  CRE: 0.2 mg/dL
  DBIL: 0 mg/dL
  GLC: 199.8 mg/dL
  IP: 7.8 mg/dL
  K: 4.2 meq/L
  LDH: 195.2 IU/L
  Na: 142.7 meq/L
  PL: 149 mg/dL
  RALB: 4.1 g/dL
  TBIL: 0.004 mg/dL
  TC: 75.2 mg/dL
  TP: 5.8 g/dL
  gamma-GTP: 1 IU/L
60 mg/kg, 3 h, dose level Low
  Bas: 0%
  Eos: 1%
  Lym: 73.4%
  MCHC: 32.7%
  MCV: 63.2 fL
  Mono: 3%
  Neu: 21.6%
  RBC: 603 x10_4/ul
  Ret: 9.5%
  WBC: 109.9 x10_2/uL
  KIDNEY_L: 0.9 g
  KIDNEY_R: 0.9 g
  KIDNEY_TOTAL: 1.7 g
  LIVER: 9.3 g
  ALP: 1755.4 IU/L
  AST: 81.6 IU/L
  CRE: 0.2 mg/dL
  DBIL: 0.008 mg/dL
  GLC: 187 mg/dL
  IP: 8.6 mg/dL
  K: 4.1 meq/L
  LDH: 243.6 IU/L
  Na: 142.4 meq/L
  PL: 150.2 mg/dL
  RALB: 4 g/dL
  TBIL: 0.03 mg/dL
  TC: 82.8 mg/dL
  TP: 5.5 g/dL
  gamma-GTP: 0.8 IU/L
60 mg/kg, 6 h, dose level Low
  Bas: 0%
  Eos: 0.8%
  Lym: 80.6%
  MCHC: 32.8%
  MCV: 63.4 fL
  Mono: 2%
  Neu: 16.2%
  RBC: 618.6 x10_4/ul
  Ret: 9.5%
  WBC: 104.6 x10_2/uL
  KIDNEY_L: 0.9 g
  KIDNEY_R: 0.9 g
  KIDNEY_TOTAL: 1.8 g
  LIVER: 8.4 g
  ALP: 1520 IU/L
  AST: 77.6 IU/L
  CRE: 0.2 mg/dL
  DBIL: 0.008 mg/dL
  GLC: 190.8 mg/dL
  IP: 9.4 mg/dL
  K: 4.2 meq/L
  LDH: 238 IU/L
  Na: 140.7 meq/L
  PL: 152.8 mg/dL
  RALB: 4 g/dL
  TBIL: 0.03 mg/dL
  TC: 82.4 mg/dL
  TP: 5.4 g/dL
  gamma-GTP: 0.7 IU/L
60 mg/kg, 9 h, dose level Low
  Bas: 0%
  Eos: 1%
  Lym: 73.8%
  MCHC: 33%
  MCV: 63.2 fL
  Mono: 2.2%
  Neu: 22.6%
  RBC: 613.6 x10_4/ul
  Ret: 8.7%
  WBC: 94.3 x10_2/uL
  KIDNEY_L: 0.8 g
  KIDNEY_R: 0.9 g
  KIDNEY_TOTAL: 1.7 g
  LIVER: 8.2 g
  ALP: 1712.2 IU/L
  AST: 75.4 IU/L
  CRE: 0.2 mg/dL
  DBIL: 0.006 mg/dL
  GLC: 183.2 mg/dL
  IP: 9.4 mg/dL
  K: 4 meq/L
  LDH: 176.4 IU/L
  Na: 140 meq/L
  PL: 137.4 mg/dL
  RALB: 4 g/dL
  TBIL: 0.016 mg/dL
  TC: 77.8 mg/dL
  TP: 5.5 g/dL
  gamma-GTP: 0.7 IU/L
60 mg/kg, 24 h, dose level Low
  Bas: 0%
  Eos: 0.6%
  Lym: 85%
  MCHC: 33.1%
  MCV: 64.4 fL
  Mono: 2.4%
  Neu: 11.6%
  RBC: 590.4 x10_4/ul
  Ret: 8.2%
  WBC: 87.7 x10_2/uL
  KIDNEY_L: 0.9 g
  KIDNEY_R: 0.9 g
  KIDNEY_TOTAL: 1.8 g
  LIVER: 10 g
  ALP: 1709.8 IU/L
  AST: 77.2 IU/L
  CRE: 0.2 mg/dL
  DBIL: 0.002 mg/dL
  GLC: 186.4 mg/dL
  IP: 7.6 mg/dL
  K: 4 meq/L
  LDH: 197 IU/L
  Na: 142.7 meq/L
  PL: 162.8 mg/dL
  RALB: 4.1 g/dL
  TBIL: 0.006 mg/dL
  TC: 85.4 mg/dL
  TP: 5.7 g/dL
